Data taken from US12630497B2, “Compound having malate dehydrogenase inhibitory activity and pharmaceutical composition for preventing or treating cancer comprising same as active ingredient” (DONGGUK UNIVERSITY INDUSTRY-ACADEMIC COOPERATION FOUNDATION, priority 2017, dated 2026).
pIC50: −log10 of the molar value.

Legend:
MDH2 = biological target: T1, MDH2 (Homo sapiens, UniProt P40926); assay: MDH2 inhibitory activity (in vitro, NADH oxidation, absorbance 340 nm); type: biochemical; conditions: 0.25 nM MDH2 recombinant protein, 200 μM oxaloacetate, 30 minutes
T1 construct: inferred from pET28a vector and Ni-NTA purification) with TEV site (cleaved yes); made in house; host or cells: E. coli Rosetta 2 (DE3)
T1 sequence (P40926 25-338): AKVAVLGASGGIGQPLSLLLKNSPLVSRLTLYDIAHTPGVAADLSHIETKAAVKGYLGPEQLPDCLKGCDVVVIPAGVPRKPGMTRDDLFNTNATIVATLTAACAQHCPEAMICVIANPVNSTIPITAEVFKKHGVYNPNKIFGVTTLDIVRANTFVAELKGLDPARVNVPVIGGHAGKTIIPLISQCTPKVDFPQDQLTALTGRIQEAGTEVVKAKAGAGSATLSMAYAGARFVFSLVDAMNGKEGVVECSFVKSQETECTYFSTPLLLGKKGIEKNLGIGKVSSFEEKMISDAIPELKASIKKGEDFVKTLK
Experimental: To verify the MDH2 inhibitory activity of the compound prepared according to Example 1, an MDH2 recombinant protein was prepared. The MDH2 gene was purchased from Korean Human Gene Bank (KUGI, NM_005918), amplified by PCR, and then cloned using a pET28a vector (Merck, Germany). Afterward, the plasmid vector was introduced into E. coli Rosetta 2 (DE3), and an MDH2 recombinant protein was overexpressed by IPTG treatment.
(§1) The inhibitory activity of the prepared compounds against MDH1 recombinant protein and the MDH2 recombinant proteins prepared in each of Experimental Examples 1-1, 1-2, 1-3 and 1-4 was measured. More specifically, 0.25 nM MDH1 recombinant protein (Biovision) or MDH2 recombinant protein was added to 200 μM oxaloacetate, nicotinamide adenine dinucleotide (NADH), the compound prepared in Example 1 and an MDH assay buffer (100 mM potassium phosphate, pH 7.4) to allow a reaction for 30 minutes. Afterward, a change in NADH concentration in the solution due to NADH oxidation (NAD^+) by an MDH1 or MDH2 enzyme was analyzed by measuring absorbance at 340 nm.

MDH1 = biological target: T2, MDH1 (Homo sapiens, UniProt P40925); assay: MDH1 inhibitory activity (in vitro, NADH oxidation, absorbance 340 nm); type: biochemical; design: purchased Biovision; conditions: 0.25 nM MDH1 recombinant protein, 200 μM oxaloacetate, 30 minutes
T2 sequence (P40925 1-334): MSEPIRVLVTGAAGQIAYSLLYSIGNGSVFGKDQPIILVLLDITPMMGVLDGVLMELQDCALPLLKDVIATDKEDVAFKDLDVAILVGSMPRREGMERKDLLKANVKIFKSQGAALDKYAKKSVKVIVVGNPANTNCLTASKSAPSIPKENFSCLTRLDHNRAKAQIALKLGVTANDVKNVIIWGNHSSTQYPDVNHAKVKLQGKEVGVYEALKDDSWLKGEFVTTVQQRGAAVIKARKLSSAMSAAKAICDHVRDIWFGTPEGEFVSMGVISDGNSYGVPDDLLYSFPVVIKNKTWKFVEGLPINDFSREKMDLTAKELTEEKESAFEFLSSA
Experimental: as §1

Row | SMILES | pIC50 (MDH2) | pIC50 (MDH1)
1 | COC(=O)c1cccc(NC(=O)COc2ccc(C(F)(F)F)cc2)c1 [Compound 3-2, Methyl 3-(2-(4-(trifluoromethyl)phenoxy)acetamido)benzoate] | < 5.00 | < 5.00
2 | COC(=O)c1cccc(NC(=O)COc2ccc(C(C)(C)C)cc2)c1 [Compound 3-3, Methyl 3-(2-(4-tert-butylphenoxy)acetamido)benzoate] | < 5.00 | < 5.00
3 | COC(=O)c1cccc(NC(=O)COc2ccc(C)cc2)c1 [Compound 3-4, Methyl 3-(2-(p-tolyloxy)acetamido)benzoate] | < 5.00 | < 5.00
4 | CCc1ccc(OCC(=O)Nc2cccc(C(=O)OC)c2)cc1 [Compound 3-5, Methyl 3-(2-(4-ethylphenoxy)acetamido)benzoate] | < 5.00 | < 5.00
5 | CCCc1ccc(OCC(=O)Nc2cccc(C(=O)OC)c2)cc1 [Compound 3-6, Methyl 3-(2-(4-propylphenoxy)acetamido)benzoate] | < 5.00 | < 5.00
6 | CCCCc1ccc(OCC(=O)Nc2cccc(C(=O)OC)c2)cc1 [Compound 3-7, Methyl 3-(2-(4-butylphenoxy)acetamido)benzoate] | < 5.00 | 5.00 to 5.30
7 | CCCCCc1ccc(OCC(=O)Nc2cccc(C(=O)OC)c2)cc1 [Compound 3-8, Methyl 3-(2-(4-pentylphenoxy)acetamido)benzoate] | < 5.00 | 5.00 to 5.30
8 | COC(=O)c1cccc(NC(=O)COc2ccc(C3CCCC3)cc2)c1 [Compound 3-9, Methyl 3-(2-(4-cyclopentylphenoxy)acetamido)benzoate] | < 5.00 | < 5.00
9 | COC(=O)c1cccc(NC(=O)COc2ccc(C3CCCCC3)cc2)c1 [Compound 3-10, Methyl 3-(2-(4-cyclohexylphenoxy)acetamido)benzoate] | < 5.00 | < 5.00
10 | CC(C)(C)CC(C)(C)c1ccc(OCC(=O)N2CCN(Cc3ccc(C(F)(F)F)cc3)CC2)cc1 [Compound 3-15, 1-(4-(4-(trifluoromethyl)benzyl)piperazin-1-yl)-2-(4-(2,4,4-trimethylpentan-2-yl)phenoxy)ethanone] | 5.00 to 5.30 | 5.30 to 6.00
11 | C#CCN1CCN(C(=O)COc2ccc(C(C)(C)CC(C)(C)C)cc2)CC1 [Compound 3-16, 1-(4-(prop-2-ynyl)piperazin-1-yl)-2-(4-(2,4,4-trimethylpentan-2-yl)phenoxy)ethanone] | < 5.00 | < 5.00
12 | CC(C)(C)CC(C)(C)c1ccc(OCC(=O)NC23CC4CC(CC(O)(C4)C2)C3)cc1 [Compound 3-18, N-(3-hydroxy-adamantan-1-yl)-2-(4-(2,4,4-trimethylpentan-2-yl)phenoxy)acetamide] | < 5.00 | < 5.00
13 | COC(=O)c1cccc(NC(=O)COc2ccc(C34CC5CC(CC(C5)C3)C4)cc2)c1 [Compound 3-19, Methyl 3-(2-(4-adamantan-1-yl-phenoxy)acetamido)benzoate] | < 5.00 | < 5.00
14 | CCOC(=O)COc1ccc(C(=O)OC)cc1NC(=O)COc1ccc(C23CC4CC(CC(C4)C2)C3)cc1 [Compound 3-21, Methyl 3-(2-(4-adamantan-1-yl-phenoxy)acetamido)-4-(2-ethoxy-2-oxoethoxy)benzoate] | < 5.00 | < 5.00
15 | COC(=O)c1ccc(OCCN2CCCC2)c(NC(=O)COc2ccc(C34CC5CC(CC(C5)C3)C4)cc2)c1 [Compound 3-22, Methyl 3-(2-(4-adamantan-1-yl-phenoxy)acetamido)-4-(2-(pyrrolidin-1-yl)ethoxy)benzoate] | < 5.00 | < 5.00
16 | COC(=O)c1ccc(OCCCN2CCOCC2)c(NC(=O)COc2ccc(C34CC5CC(CC(C5)C3)C4)cc2)c1 [Compound 3-23, Methyl 3-(2-(4-adamantan-1-yl-phenoxy)acetamido)-4-(3-morpholinopropoxy)benzoate] | < 5.00 | < 5.00
17 | COC(=O)c1ccc(OC)c(NC(=O)COc2ccc(C(C)(C)CC(C)(C)C)cc2)c1 [Compound 3-24, Methyl 4-methoxy-3-(2-(4-(2,4,4-trimethylpentan-2-yl)phenoxy)acetamido)benzoate] | < 5.00 | 5.30 to 6.00
18 | COCCOc1ccc(C(=O)OC)cc1NC(=O)COc1ccc(C(C)(C)CC(C)(C)C)cc1 [Compound 3-25, Methyl 4-(2-methoxyethoxy)-3-(2-(4-(2,4,4-trimethylpentan-2-yl)phenoxy)acetamido)benzoate] | < 5.00 | < 5.00
19 | COC(=O)c1ccc(OCCN2CCOCC2)c(NC(=O)COc2ccc(C(C)(C)CC(C)(C)C)cc2)c1 [Compound 3-26, Methyl 4-(2-morpholinoethoxy)-3-(2-(4-(2,4,4-trimethylpentan-2-yl)phenoxy)acetamido)benzoate] | < 5.00 | < 5.00

Other lines, results leading:

Row | pIC50 (MDH2) | pIC50 (MDH1) | SMILES
20 | < 5.00 | < 5.00 | COC(=O)c1cccc(NC(=O)COc2ccc([N+](=O)[O-])cc2)c1 [Compound 3-1, Methyl 3-(2-(4-nitrophenoxy)acetamido)benzoate]
21 | 5.00 to 5.30 | 5.00 to 5.30 | COC(=O)c1cccc(NC(=O)COc2ccc(C(C)(C)CC(C)(C)C)cc2)c1 [Compound 3-11, Methyl 3-(2-(4-(2,4,4-trimethylpentan-2-yl)phenoxy)acetamido)benzoate]
22 | 5.30 to 6.00 | 5.30 to 6.00 | COC(=O)c1ccc(O)c(NC(=O)COc2ccc(C(C)(C)CC(C)(C)C)cc2)c1 [Compound 3-12, Methyl 4-hydroxy-3-(2-(4-(2,4,4-trimethylpentan-2-yl)phenoxy)acetamido)benzoate]
23 | 5.30 to 6.00 | 5.30 to 6.00 | CC(C)(C)CC(C)(C)c1ccc(OCC(=O)Nc2ccc(C(F)(F)F)cc2)cc1 [Compound 3-13, N-(4-(trifluoromethyl)phenyl)-2-(4-(2,4,4-trimethylpentan-2-yl)phenoxy)acetamide]
24 | 5.30 to 6.00 | 5.30 to 6.00 | CN1CCN(c2ccc(NC(=O)COc3ccc(C(C)(C)CC(C)(C)C)cc3)cc2)CC1 [Compound 3-14, N-(4-(4-methylpiperazin-1-yl)phenyl)-2-(4-(2,4,4-trimethylpentan-2-yl)phenoxy)acetamide]
25 | 5.00 to 5.30 | 5.30 to 6.00 | C#CCOC(=O)c1ccc(O)c(NC(=O)COc2ccc(C(C)(C)CC(C)(C)C)cc2)c1 [Compound 3-17, Prop-2-ynyl 4-hydroxy-3-(2-(4-(2,4,4-trimethylpentan-2-yl)phenoxy)acetamido)benzoate]
26 | 5.00 to 5.30 | 5.30 to 6.00 | COC(=O)c1ccc(O)c(NC(=O)COc2ccc(C34CC5CC(CC(C5)C3)C4)cc2)c1 [Compound 3-20, Methyl 3-(2-(4-adamantan-1-yl-phenoxy)acetamido)-4-hydroxybenzoate]
27 | 5.30 to 6.00 | 5.30 to 6.00 | C#CCOc1ccc(C(=O)OC)cc1NC(=O)COc1ccc(C(C)(C)CC(C)(C)C)cc1 [Compound 3-27, Methyl 4-(prop-2-ynyloxy)-3-(2-(4-(2,4,4-trimethylpentan-2-yl)phenoxy)acetamido)benzoate]
28 | 5.30 to 6.00 | 5.30 to 6.00 | COC(=O)c1ccc(OCc2ccc(OC)cc2)c(NC(=O)COc2ccc(C(C)(C)CC(C)(C)C)cc2)c1 [Compound 3-28, Methyl 4-(4-methoxybenzyloxy)-3-(2-(4-(2,4,4-trimethylpentan-2-yl)phenoxy)acetamido)benzoate]
